Laboratory results as given in US10456410B2, “Hydrogen sulfide (H2S) releasing donor compound for dermal wound regeneration” (University of South Carolina, priority 2017, dated 2019).

Assays:
[1] = H2S release from SA/JK-1 sponge at varied pH; conditions: pH 6.0
[2] = H2S release kinetics from PCL-JK-1 fibrous scaffold, modified Methylene Blue method; conditions: pH 6.0, PBS; PCL-JK-1 with 10% JK-1, JK-1 in solution as control (FIG. 4B)

## O=C([O-])CNP([O-])(=S)c1ccccc1.[Li+].[Li+] (centres unmarked) [JK-1]
[1]
  time to H2S peak concentration: ≤ 55 min
[2]
  time to H2S peak concentration: ≤ 10 min
